For experiment [1], the species on record is Rattus norvegicus. In words: Antagonist activity tested in [Ca2+] -influx assay by using neonatal rat cultured spinal sensory neurons. In kind it is functional.
The species entered for experiment [2] is Rattus norvegicus. Put plainly: Agonist activity tested in [Ca2+] -influx assay by using neonatal rat cultured spinal sensory neurons. In kind it is functional.

SMILES strings stand for the structures.

Usually IC50 stands for the point on the concentration scale where inhibition reaches its midpoint. In general, EC50 refers to the concentration that produces a half-maximal response. High values mean a less potent agent, low ones a more potent agent. As to `Oc1ccc(CCC2CCCN2/C(S)=N/CCc2ccccc2)cc1O` (stereo not given), in the experiment filed under Rattus norvegicus [1], the IC50 is 55 µM. The 50% effective concentration (EC50) in the experiment filed under Rattus norvegicus [2] was above 100 µM.

For the molecule `COc1cc(CCC2CCCN2/C(S)=N/CCc2ccccc2)ccc1O` (stereo not given), 3 µM corresponded to half-maximal inhibition in the experiment filed under Rattus norvegicus [1] (IC50). The molecule further had an EC50 in the experiment listed under Rattus norvegicus [2] above 100 µM.

In the experiment filed under Rattus norvegicus [1], `Oc1ccc(C2CCCN2/C(S)=N/CCc2ccccc2)cc1O` (stereo not given) registered a 50% inhibitory concentration (IC50) above 100 µM. In the experiment listed under Rattus norvegicus [2], this molecule returned an EC50 above 100 µM.

`Oc1cc2c(cc1O)CN(C(=S)NCCc1ccc(Cl)cc1)CCC2` [CAPSAZEPINE] showed a 50% inhibitory concentration (IC50) in the experiment filed under Rattus norvegicus [1] of 0.6 µM. Besides, the EC50 in the experiment listed under Rattus norvegicus [2] is above 100 µM.

`COc1cc(C2CCCN2/C(S)=N/CCc2ccccc2)ccc1O` (stereo not given): the IC50 in the experiment filed under Rattus norvegicus [1] was above 100 µM. Also, the EC50 in the experiment listed under Rattus norvegicus [2] was above 100 µM.

(Values after ChEMBL document CHEMBL1136259, “Synthesis of 2-substituted-pyrrolidinethiourea derivatives and their antagonist effect on vanilloid receptor” (Bioorg Med Chem Lett, 2003).)
